# Patent US20230100707A1, “MELANOMA THERAPEUTICS” (ESCAPE THERAPEUTICS, INC., priority 2020, published 2023)
# Where no end group is shown, it is not given here.
# What was measured:
# [1] = tested on: Human Primary Melanocytes; test: Trypan blue dye exclusion toxicity on human primary melanocytes; type: cell-based; conditions: for cell death: 1 millimolar, 72 hours of incubation, melanocytes; for % toxicity: trypan blue
# Description: (§1) Cellular toxicity was measured using a trypan blue dye exclusion assay. Cells were cultured in 6-well plates at a density of 4×10^5 cells per well. […] After 24 hours, an aliquot was taken and cells counted using a hemacytometer. Cytotoxicity was measured according to the following formula: […]
# (§2) The same procedure was repeated after 3 and 6 days of incubation.
# Human Fibroblasts = test: Trypan blue dye exclusion toxicity on human fibroblasts; type: cell-based; conditions: for cell death: 1 millimolar, 72 hours of incubation, fibroblasts; for % toxicity: trypan blue
# Description: as §1, §2
# mouse melanoma cells = conditions: for cell death / cytotoxicity: 3 millimolar, incubation for 3 days, MTT (FIG. 4); for cytotoxicity to mouse melanoma (figure): treated with 3 millimolar, figure vs untreated
# Description: (§3) Human and mouse melanoma cell lines as wells as Fibroblasts were cultured using DMEM with L-glutamine, 10 percent FBS and 1 percent P/S (Thermo Fisher Scientific, NY). Human melanocytes were cultured using medium 254 (Thermo Fisher Scientific, NY) and incubated at 37 degrees Celsius in a humidified 5 percent CO2 chamber.
# (§4) Proliferation rates were determined using a TACS® MTT Cell Proliferation Kit (R&D Systems, Minneapolis, Minn.). Cells were seeded at 2.5×10 ^4 per well in 96-well plates in a humidified atmosphere with 5 percent CO2 at 37 degrees Celsius. Twenty-four hours later, oligopeptides or hydroquinone were added to the corresponding wells at varying concentrations (0.03, 0.1, 0.3, 1, and 3 millimolar (mM)), and cultures were incubated for 72 hours. The remainder of the procedure was performed following the manufacturer's protocol.
# [2] = tested on: human metastatic melanoma line harboring the V600E BRAF mutation; test: MTT cell proliferation and viability assay, human melanoma cells
# Description: as §3, §4
# [3] = tested on: human epidermal keratinocytes; test: Cytotoxicity towards human epidermal keratinocytes (figures); type: cell-based; conditions: normal human epidermal keratinocytes, 3 millimolar in figure
# Description: Human neonatal epidermal keratinocytes were cultured in Epilife media containing 60 μM of calcium chloride (Thermo Fisher Scientific, NY). All cell cultures were incubated in a humidified chamber at 37 degrees Celsius and 5 percent CO2.
# The figures show human epidermal keratinocytes with 3 millimolar P5, human epidermal keratinocytes with 3 millimolar P14, and human epidermal keratinocytes with 3 millimolar HQ.
Compound,cell death [1],"% toxicity ([1]; Day 1, 30 μM)","% toxicity ([1]; Day 1, 100 μM)","% toxicity ([1]; Day 1, 300 μM)","% toxicity ([1]; Day 1, 1000 μM)","% toxicity ([1]; Day 3, 30 μM)","% toxicity ([1]; Day 3, 100 μM)","% toxicity ([1]; Day 3, 300 μM)","% toxicity ([1]; Day 3, 1000 μM)","% toxicity ([1]; Day 6, 30 μM)","% toxicity ([1]; Day 6, 100 μM)","% toxicity ([1]; Day 6, 300 μM)","% toxicity ([1]; Day 6, 1000 μM)",cell death (Human Fibroblasts),"% toxicity (Human Fibroblasts; Day 1, 30 μM)","% toxicity (Human Fibroblasts; Day 1, 100 μM)","% toxicity (Human Fibroblasts; Day 1, 300 μM)","% toxicity (Human Fibroblasts; Day 1, 1000 μM)","% toxicity (Human Fibroblasts; Day 3, 30 μM)",cytotoxic effects towards keratinocytes [3],further results
"Oc1ccc(O)cc1 [HQ, Hydroquinone, reference compound]",100%,41%,98%,100%,100%,53%,100%,100%,100%,60%,100%,100%,100%,100%,3%,17%,27%,100%,9%,indiscriminate cytotoxicity,"% toxicity ([1]; Day 1, 10 μM): 27%; % toxicity ([1]; Day 3, 10 μM): 29%; % toxicity ([1]; Day 6, 10 μM): 35%; % toxicity (Human Fibroblasts; Day 1, 3000 μM): 100%; % toxicity (Human Fibroblasts; Day 3, 100 μM): 20%; % toxicity (Human Fibroblasts; Day 3, 300 μM): 44%; % toxicity (Human Fibroblasts; Day 3, 1000 μM): 100%; % toxicity (Human Fibroblasts; Day 3, 3000 μM): 100%; % toxicity (Human Fibroblasts; Day 6, 30 μM): 15%; % toxicity (Human Fibroblasts; Day 6, 100 μM): 30%; % toxicity (Human Fibroblasts; Day 6, 300 μM): 54%; % toxicity (Human Fibroblasts; Day 6, 1000 μM): 100%; % toxicity (Human Fibroblasts; Day 6, 3000 μM): 100%; cell death / cytotoxicity (mouse melanoma cells): 90%; cytotoxicity ([2]; human, 72 h, 1 mM): ~80%"
"CC(C)CC(NC(=O)C1CCCN1)C(=O)NCC(=O)O (centres unmarked) [P5, PLG]",9%,0.1%,0.1%,2.2%,7.8%,0.1%,0.1%,2.4%,8.7%,0.1%,0.1%,2.7%,9.3%,3%,0.1%,0.1%,0.1%,2.1%,0.1%,very little to no cytotoxic effects,"% toxicity ([1]; Day 1, 3000 μM): 13.3%; % toxicity ([1]; Day 3, 3000 μM): 13.5%; % toxicity ([1]; Day 6, 3000 μM): 14.5%; % toxicity (Human Fibroblasts; Day 1, 10 μM): 0.1%; % toxicity (Human Fibroblasts; Day 3, 10 μM): 0.1%; % toxicity (Human Fibroblasts; Day 3, 100 μM): 0.1%; % toxicity (Human Fibroblasts; Day 3, 300 μM): 0.5%; % toxicity (Human Fibroblasts; Day 3, 1000 μM): 2.6%; % toxicity (Human Fibroblasts; Day 6, 10 μM): 0.1%; % toxicity (Human Fibroblasts; Day 6, 30 μM): 0.1%; % toxicity (Human Fibroblasts; Day 6, 100 μM): 0.1%; % toxicity (Human Fibroblasts; Day 6, 300 μM): 1.1%; % toxicity (Human Fibroblasts; Day 6, 1000 μM): 3.9%; cytotoxicity to mouse melanoma (figure) (mouse melanoma cells): selectively cytotoxic"
"RRFVLL [P14, RRFVLL]",,,,,,,,,,,,,,,,,,,,very little to no cytotoxic effects,"cell death / cytotoxicity (mouse melanoma cells): 49%; cytotoxicity to mouse melanoma (figure) (mouse melanoma cells): selectively cytotoxic; cytotoxicity ([2]; 1 millimolar, human melanoma cells, MTT (FIG. 5)): ~36%; cytotoxicity to human melanoma (figure) ([2]; treated with 3 millimolar, figure vs untreated): selectively cytotoxic"
